One data set concerns Veillonella. The data set is described as follows: In vitro MIC determination, clinical anaerobic strains. It counts as cell-based. As to conditions: 23 clinical strains, GAM broth, 72 hours anaerobic incubation at 35° C. The procedure: (§1) Experimental strains: isolated from clinical specimens, and species identification were conducted.
(§2) Bacilli preparation: 4˜5 bacteria colonies with same pattern selected from anaerobic GAM plate were inoculated in GAM broth with inoculating loop. The bacteria was incubated at 35° C. under anaerobic condition until a slight turbidity was attained, and adjusted by means of sterilized saline (deoxygenated) so as to attain a turbidity equivalent to the No. 0.5 McFarland turbidity tube, then diluted with GAM broth (at 1:200) for later use.
(§3) MIC (Minimum Inhibitory Concentration) determination: the testing drugs and control drugs were diluted with GAM broth to different concentrations in the test tubes, followed by addition of equal volume of diluted Bacilli (at 1:200), MIC values were read 72 hours after anaerobic incubation at 35° C.

For another data set, the system named is Fusobacterium nucleatum. The description is as above. It counts as cell-based. The conditions noted are these: 11 clinical strains, GAM broth, 72 hours anaerobic incubation at 35° C. As for the experimental part:
as §1, §2, §3

Another data set has as its system Peptostreptococcus. Described as above. It counts as cell-based. The conditions noted are these: 35 clinical strains, GAM broth, 72 hours anaerobic incubation at 35° C. The procedure: as §1, §2, §3
In the next data set the test system is Bacteroides. The description is as above. It counts as cell-based. The conditions noted are these: 40 clinical strains, GAM broth, 72 hours anaerobic incubation at 35° C. The procedure: as §1, §2, §3
Another data set relates to Clostridium. Described as above. It counts as cell-based. The conditions noted are these: 6 clinical strains, GAM broth, 72 hours anaerobic incubation at 35° C. The procedure:
as §1, §2, §3

The next data set relates to mice. As to conditions: mouse, in vivo, 40 mg/kg.
Data set [1] is described as follows: Acute toxicology test, LD50 in mice (Bliss method). It counts as in vivo. As to conditions: both sexes, Kunming, mouse, in vivo, read-out: 95% confidence interval (CI) of LD50. The procedure:
Kunming mice, half males and half females, with body weights of 18˜22 g, were administered the testing drug solution by injection 8 hours after fasting. The death status of animals was consecutively observed for 14 days after administration.

Converted amounts (≈) assume the structure as drawn. Read-outs that look alike come from different tables or passages of the source.

What is called MIC50 is the lowest concentration that inhibits either 50% of growth or 50% of the strains tested, depending on the study. For orientation: MIC90 means the lowest concentration that inhibits either 90% of growth or 90% of the strains tested, depending on the study. What is called LD50 is the dose at which mortality reaches 50%. As to `Cc1ncc([N+](=O)[O-])n1CC(O)CCl` (racemic) [racemic ornidazole, ornidazole], the “MIC Range” value is listed as 2.0~16.0 mg/L with Veillonella, 1.0~32.0 mg/L in the data set with Fusobacterium nucleatum, 2.0~16.0 mg/L in the data set on Bacteroides and 1.0~2.0 mg/L against Clostridium. The MIC50 with Veillonella (Veillonella, read-out: MIC50) was found to be 4 µg/mL (≈ 18.2 µM); in the data set on Fusobacterium nucleatum (Fusobacterium nucleatum, read-out: MIC50), 2 µg/mL (≈ 9.11 µM); in the data set with Peptostreptococcus (Peptostreptococcus, read-out: MIC50) it was 4 µg/mL (≈ 18.2 µM); in the data set with Bacteroides (Bacteroides, read-out: MIC50), 4 µg/mL (≈ 18.2 µM); with Clostridium (Clostridium, read-out: MIC50), 2 µg/mL (≈ 9.11 µM). Further, the MIC90 with Veillonella (Veillonella, read-out: MIC90) stood at 8 µg/mL (≈ 36.4 µM); with Fusobacterium nucleatum (Fusobacterium nucleatum, read-out: MIC90), 32 µg/mL (≈ 146 µM); with Peptostreptococcus (Peptostreptococcus, read-out: MIC90), 8 µg/mL (≈ 36.4 µM); with Bacteroides (Bacteroides, read-out: MIC90) it was 8 µg/mL (≈ 36.4 µM); in the data set on Clostridium (Clostridium, read-out: MIC90), 2 µg/mL (≈ 9.11 µM). The “duration of sleeping induced by sodium thiopental, compared with the vehicle control group” value in the data set with mice was “significantly extended”. The LD50 at 14 days in data set [1] (intravenous injection) is 272 to 346 mg/kg; in data set [1] (ip, intraperitoneal injection), 1030 to 1210 mg/kg; in data set [1] (oral gavage) it was 674 to 878 mg/kg.

Regarding `Cc1ncc([N+](=O)[O-])n1C[C@H](O)CCl` [L-ornidazole, 1-(3-chloro-2-S-(−)-hydroxypropyl)-2-methyl-5-nitroimidazole], the MIC50 was determined as 4.0 µg/mL (≈ 18.2 µM) against Veillonella; 2.0 µg/mL (≈ 9.11 µM) in the data set on Fusobacterium nucleatum; 4.0 µg/mL (≈ 18.2 µM) with Peptostreptococcus; 4.0 µg/mL (≈ 18.2 µM) in the data set with Bacteroides; 2.0 µg/mL (≈ 9.11 µM) in the data set on Clostridium. Besides, the MIC90 in the data set on Veillonella turned out to be 8.0 µg/mL (≈ 36.4 µM); against Fusobacterium nucleatum, 16.0 µg/mL (≈ 72.9 µM); in the data set on Peptostreptococcus, 8.0 µg/mL (≈ 36.4 µM); against Bacteroides, 8.0 µg/mL (≈ 36.4 µM); against Clostridium, 2.0 µg/mL (≈ 9.11 µM). Moreover, the “MIC Range” value is given as 2.0~8.0 mg/L in the data set with Veillonella; 1.0~16.0 mg/L in the data set with Fusobacterium nucleatum; 2.0~32.0 mg/L with Peptostreptococcus; 20~16.0 mg/L with Bacteroides; 1.0~2.0 mg/L in the data set with Clostridium.

Values taken from patent US8530507B2, “Use of levo-ornidazole in the preparation of anti-anaerobic bacteria infection drugs” (priority 2005, dated 2013).
